Measurements from article PMC12348585, “Semi-Synthesis, Anti-Leukemia Activity, and Docking Study of Derivatives from 3α,24-Dihydroxylup-20(29)-en-28-Oic Acid” (Molecules, 2025).
Where two headings read alike, the source gives them in different places.

How the values were obtained:
JURKAT cell line = assay: Apoptosis assay (annexin V-FITC/DAPI flow cytometry), JURKAT; type: cell-based
Description: (§1) Since compound T1c was the only derivative that decreased the cell viability of leukemic cells (IC50 ≤ 20 µΜ), without affecting viability in normal MNC cells, its mode of action to exert cytotoxic effects was evaluated by flow cytometry techniques, determining the apoptotic effect at 48 h, using ½ IC50 and IC50 concentrations obtained in the viability assay in the different leukemia cell lines. Dasatinib at different concentrations was included as a positive control. Cell death was quantified by dual staining with annexin V-FITC and DAPI. Annexin V binds to externalized phosphatidylserine residues during early and late apoptosis, whereas DAPI penetrates membrane-compromised cells, distinguishing between late apoptotic and necrotic cells. The total percentage of apoptotic cells was calculated as the sum of early and late apoptotic populations. The results were normalized to 100% with respect to the negative control.
(§2) Apoptosis induction was evaluated by flow cytometry. Cells (1 × 10^5 cells/well) were cultured in 96-well plates and exposed to the compounds at two concentrations (½ and 1 × IC50). After 48 h of treatment, the cells were washed with phosphate-buffered saline (PBS) and stained with annexin V-FITC (BD Bioscience) for 15 min in the dark. Following a second PBS wash, the cells were stained with DAPI (500 ng/mL) for 15 min in darkness. The stained samples were subsequently analyzed on a FACSVerse cytometer (BD Bioscience, San Jose, CA, USA).

[1] = tested on: leukemia cell lines (CCRF-CEM, REH, JURKAT, MOLT-4, THP-1); assay: Cell viability assay, all leukemia cell lines tested (summary statements); type: cell-based
Description: (§3) Cell lines were cultured in RPMI 1640 medium (Roswell Park Memorial Institute medium) supplemented with 10% fetal bovine serum (FBS) and 1% penicillin–streptomycin. Cultures were maintained at 37 °C in a humidified incubator with 5% CO2. All biological evaluations were performed using cell between passages 3 and 4. All compounds were dissolved in dimethyl sulfoxide (DMSO) at a concentration of 20 mg/mL. In all assays, culture medium containing 0.1% DMSO was used as the negative control, while dasatinib was included as the positive control. Normal mononuclear cells (MNCs) were included as the normal cell control. All experiments were performed in triplicate. Leukemic cell lines and normal mononuclear cells (MNCs) were used to evaluate the cytotoxicity of the compounds. Leukemic cells (1 × 10^5 cells/well) were cultured in 96-well plates and treated with increasing concentrations of compounds (0.02, 0.2, 2.0, and 20 µM) for 48 h. After incubation, both leukemic cells and MNCs were collected, washed with phosphate-buffered saline (PBS), and stained with DAPI (500 ng/mL) for 15 min in darkness, following the manufacturer’s instructions. Fluorescence was analyzed using a FACSVerse flow cytometer (BD Bioscience, San Jose, CA, USA). Flow cytometry data were analyzed using FlowJo^TM software (version 10.9). […] All experiments were performed in triplicate, and results were expressed as means ± standard errors of the means (SEMs). Statical analysis was performed using one-way analysis of variance (ANOVA), followed by Dunnett’s post hoc test to compare treated groups against the control.

MOLT-4 = assay: Cell viability assay (DAPI, flow cytometry), MOLT-4; type: cell-based; conditions: Homo sapiens, MOLT-4; 48 h; mean ± SEM; N/A: not active
Description: as §3

THP-1 = assay: Cell viability assay (DAPI, flow cytometry), THP-1; type: cell-based; conditions: for IC50: Homo sapiens, THP-1, 48 h, mean ± SEM, N/A: not active
Description: as §3

CCRF-CEM = assay: Cell viability assay (DAPI, flow cytometry), CCRF-CEM; type: cell-based; conditions: for IC50: Homo sapiens, CCRF-CEM, 48 h, mean ± SEM, N/A: not active; for SI: selectivity index, CCRF-CEM: ratio of IC50 in the MNC line over IC50 in the leukemia cell line
Description: as §3

JURKAT = assay: Cell viability assay (DAPI, flow cytometry), JURKAT; type: cell-based; conditions: for IC50: Homo sapiens, Jurkat, 48 h, mean ± SEM, N/A: not active; for SI: selectivity index, JURKAT: ratio of IC50 in the MNC line over IC50 in the leukemia cell line
Description: as §3

MOLT-4 cell line = assay: Apoptosis assay (annexin V-FITC/DAPI flow cytometry), MOLT-4; type: cell-based
Description: as §1, §2

[2] = Cell viability assay in normal mononuclear cells; type: cell-based, human; conditions: human
Description: (§4) All compounds were dissolved in dimethyl sulfoxide (DMSO) at a concentration of 20 mg/mL. In all assays, culture medium containing 0.1% DMSO was used as the negative control, while dasatinib was included as the positive control. Normal mononuclear cells (MNCs) were included as the normal cell control. All experiments were performed in triplicate. Normal mononuclear cells (MNCs) were isolated from peripheral blood mononuclear cells obtained from healthy human donors. Cell collection was conducted in accordance with institutional guidelines, including written informed consent from each participant. All procedures were approved by Ethics and Scientific Committee of the Mexican Institute of Social Security (IMSS, ethical approval number: CNIC R-2021-785-025). The MNCs were purified using FicollPaque Plus (Pharmacia Biotech, Uppsala, Sweden) by centrifugation at 400× g for 30 min at room temperature, following the manufacturer’s protocol. The resulting cells were resuspended in RPMI-1640 medium supplemented with 10% fetal bovine serum (FBS) and counted using a hemocytometer after trypan blue staining, confirming a viability of 95% [56]. […] After incubation, both leukemic cells and MNCs were collected, washed with phosphate-buffered saline (PBS), and stained with DAPI (500 ng/mL) for 15 min in darkness, following the manufacturer’s instructions. Fluorescence was analyzed using a FACSVerse flow cytometer (BD Bioscience, San Jose, CA, USA). Flow cytometry data were analyzed using FlowJo^TM software (version 10.9). […] All experiments were performed in triplicate, and results were expressed as means ± standard errors of the means (SEMs). Statical analysis was performed using one-way analysis of variance (ANOVA), followed by Dunnett’s post hoc test to compare treated groups against the control.

THP-1 cell line = assay: Apoptosis assay (annexin V-FITC/DAPI flow cytometry), THP-1; type: cell-based
Description: as §1, §2

CCRF-CEM cell line = assay: Apoptosis assay (annexin V-FITC/DAPI flow cytometry), CCRF-CEM; type: cell-based
Description: as §1, §2

REH = assay: Cell viability assay (DAPI, flow cytometry), REH; type: cell-based; conditions: for IC50: Homo sapiens, REH, 48 h, mean ± SEM, N/A: not active; for SI: selectivity index, REH: ratio of IC50 in the MNC line over IC50 in the leukemia cell line
Description: as §3

[3] = tested on: peripheral blood mononuclear cells (MNCs); assay: Cell viability assay in normal mononuclear cells; type: cell-based, human
Description: as §4

K562 cells = tested on: K562 cells; parameters: method as in PMID 36080390; conditions: cited from earlier work
HL-60 cells = tested on: HL-60 cells; parameters: method as in PMID 36080390; conditions: cited from earlier work
[4] = 48 h, summary over CCRF-CEM, REH, JURKAT, MOLT-4, THP-1
[5] = positive control (dasatinib), 48 h
[6] = MOLT-4, positive control (dasatinib), 48 h
[7] = THP-1, positive control (dasatinib), 48 h

C=C(C=O)C1CCC2(C(=O)O)CCC3(C)C(CCC4C5(C)CCC(O)C(C)(CO)C5CCC43C)C12 (stereo not drawn) [Compound T1c, 3α,24-dihydroxy-30-oxolup-20(29)-en-28-oic acid]
apoptosis rate (early + late) (JURKAT cell line; IC50, 48 h): 96.37 ± 0.49%
early apoptotic cells (JURKAT cell line; IC50, 48 h): 47.61%
late apoptotic cells (JURKAT cell line; IC50, 48 h): 48.72%
apoptosis rate (early + late) (JURKAT cell line; ½ IC50, 48 h): 67.14 ± 2.18%
early apoptotic cells (JURKAT cell line; ½ IC50, 48 h): 30.60%
late apoptotic cells (JURKAT cell line; ½ IC50, 48 h): 36.55%
IC50 ([1]; 48 h, summary over CCRF-CEM, REH, JURKAT, MOLT-4, THP-1, read-out: IC50 across all leukemia cell lines tested): 12.9 to 24.9 µM
SI (selectivity against leukemia cell lines vs MNCs) ([1]; summary statement): > 10
IC50 (MOLT-4): 13.9 ± 0.7 µM
IC50 (THP-1): 12.9 ± 0.1 µM
SI: selectivity index, THP-1 (THP-1; ratio of IC50 in the MNC line over IC50 in the leukemia cell line): 103.46
IC50 (CCRF-CEM): 17.8 ± 1 µM
SI: selectivity index, CCRF-CEM (CCRF-CEM): 75.02
IC50 (JURKAT): 18.7 ± 1.4 µM
SI: selectivity index, JURKAT (JURKAT): 71.46
apoptosis rate (early + late) (MOLT-4 cell line; MOLT-4, IC50, 48 h): 94.58 ± 0.45%
early apoptotic cells (MOLT-4 cell line; MOLT-4, IC50, 48 h): 30.12%
late apoptotic cells (MOLT-4 cell line; MOLT-4, IC50, 48 h): 64.46%
apoptosis rate (early + late) (MOLT-4 cell line; MOLT-4, ½ IC50, 48 h): 69.91 ± 2.17%
early apoptotic cells (MOLT-4 cell line; MOLT-4, ½ IC50, 48 h): 41.15%
late apoptotic cells (MOLT-4 cell line; MOLT-4, ½ IC50, 48 h): 28.76%
IC50 at 48 h [2]: > 200 µM
apoptosis rate (early + late) (THP-1 cell line; THP-1, IC50, 48 h): 52.23 ± 1.69%
early apoptotic cells (THP-1 cell line; THP-1, IC50, 48 h): 22.84%
late apoptotic cells (THP-1 cell line; THP-1, IC50, 48 h): 29.39%
apoptosis rate (early + late) (THP-1 cell line; THP-1, ½ IC50, 48 h): 29.40 ± 2.66%
early apoptotic cells (THP-1 cell line; THP-1, ½ IC50, 48 h): 14.50%
late apoptotic cells (THP-1 cell line; THP-1, ½ IC50, 48 h): 14.90%
apoptosis rate (early + late) (CCRF-CEM cell line; IC50, 48 h): 97.13 ± 0.36%
early apoptotic cells (CCRF-CEM cell line; IC50, 48 h): 16.92%
late apoptotic cells (CCRF-CEM cell line; IC50, 48 h): 80.21%
apoptosis rate (early + late) (CCRF-CEM cell line; ½ IC50, 48 h): 62.40 ± 1.57%
early apoptotic cells (CCRF-CEM cell line; ½ IC50, 48 h): 16.98%
late apoptotic cells (CCRF-CEM cell line; ½ IC50, 48 h): 45.42%
IC50 (REH): > 20 µM
SI: selectivity index, REH (REH): 53.55

C=C(CO)C1CCC2(C(=O)O)CCC3(C)C(CCC4C5(C)CCC(O)C(C)(CO)C5CCC43C)C12 (stereo not drawn) [Compound T1d, 3α,24,30-trihydroxylup-20(29)-en-28-oic acid]
IC50 across all leukemia cell lines tested [1, 4]: no activity
IC50 MNCs [3]: no activity

C=C(C)C1CCC2(C(=O)O)CCC3(C)C(CCC4C5(C)CCC(OC(C)=O)C(C)(CO)C5CCC43C)C12 (stereo not drawn) [Compound T1e, 3α-acetyl-24-hydroxylup-20(29)-en-28-oic acid]
IC50 across all leukemia cell lines tested [1, 4]: no activity
IC50 MNCs [3]: no activity

C=C(C=O)[C@@H]1CC[C@]2(C(=O)O)CC[C@]3(C)C(CCC4[C@@]5(C)CC[C@@H](O)[C@@](C)(CO)C5CC[C@]43C)C12 (stereo partly drawn) [Compound T2, 3α,23-dihydroxy-30-oxolup-20(29)-en-28-oic acid]
IC50 (CCRF-CEM): > 20 µM
SI: selectivity index, CCRF-CEM (CCRF-CEM): 19.48
IC50 (JURKAT): > 20 µM
SI: selectivity index, JURKAT (JURKAT): 8.56
K562 cell viability (K562 cells; at 102 µM): 88.6 ± 0.40%
K562 cell viability (K562 cells; at 204 µM): 24.3 ± 1.95%
HL-60 cell viability (HL-60 cells; at 102 µM): 88.35 ± 3.85%
HL-60 cell viability (HL-60 cells; at 204 µM): 85.15 ± 3.05%
IC50 at 48 h [2]: > 200 µM
IC50 (REH): > 20 µM
SI: selectivity index, REH (REH): 11.40

Cc1nc(Nc2ncc(C(=O)Nc3c(C)cccc3Cl)s2)cc(N2CCN(CCO)CC2)n1 [Dasatinib, dasatinib, reference compound]
apoptosis rate (early + late) (JURKAT cell line; [5]): 97.19 ± 0.11%
early apoptotic cells (JURKAT cell line; [5]): 0.59%
late apoptotic cells (JURKAT cell line; [5]): 96.60%
IC50 (MOLT-4): 2.63 ± 0.1 µM
IC50 (THP-1): 4.66 ± 0.3 µM
IC50 (CCRF-CEM): 10.8 ± 1.2 µM
IC50 (JURKAT): 5.26 ± 0.5 µM
early apoptotic cells (MOLT-4 cell line; [6]): 1.40%
late apoptotic cells (MOLT-4 cell line; [6]): 94.74%
apoptosis rate (early + late) (MOLT-4 cell line; MOLT-4, positive control (dasatinib), 48 h, normalized to negative control): 96.13 ± 0.71%
apoptosis rate (early + late) (THP-1 cell line; [7]): 32.14 ± 3.15%
early apoptotic cells (THP-1 cell line; [7]): 7.21%
late apoptotic cells (THP-1 cell line; [7]): 24.93%
IC50 (REH): 5.43 ± 0.3 µM
